14 compounds from patent US20230365576A1, “BRM Targeting Compounds And Associated Methods Of Use” (Prelude Therapeutics Incorporated, priority 2022, published 2023) can be followed below.

For assay [1], the target named is T1, SMARCA4 (Homo sapiens, UniProt P51532).
T1 construct: SMARCA4-HiBiT knock-in Hela monoclonal cell (CS3023226) were purchased from Promega; host or cells: HeLa (CRISPR HiBiT knock-in monoclonal line, heterozygous)
As to the kind of experiment: SMARCA4 HiBiT degradation assay in HeLa cells. It is filed as cell-based. The conditions noted are these: 18 hours; for Dmax: HeLa. Put shortly:
(§1)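 Degradation measured as HiBiT luminescence (Nano-Glo lytic reagent) after 18 h compound exposure at 37° C. Cells were HeLa clones carrying heterozygous HiBiT tags on SMARCA2 or SMARCA4, 2500 per well; compounds at 3-fold serial dilution from 10 μM.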

Assay [2] deals with T2, SMARCA2 (Homo sapiens, UniProt P51531).
T2 construct: SMARCA2-HiBiT knock-in Hela monoclonal cell (CS302366); host or cells: HeLa (CRISPR HiBiT knock-in monoclonal line, heterozygous)
As to the kind of experiment: SMARCA2 HiBiT degradation assay in HeLa cells. It is filed as cell-based. To be noted: 18 hours; for DC50: read-out: SMARCA2 IC50; for Dmax: HeLa. Put shortly:
as §1
For orientation: With HiBiT, luminescence reflects the tagged protein that the partner subunit can reach.

The term Dmax denotes the largest share of the target that was removed. Read a low Dmax as shallow degradation.

Molecules are shown by their SMILES.

T2 sequence (P51531 whole entry): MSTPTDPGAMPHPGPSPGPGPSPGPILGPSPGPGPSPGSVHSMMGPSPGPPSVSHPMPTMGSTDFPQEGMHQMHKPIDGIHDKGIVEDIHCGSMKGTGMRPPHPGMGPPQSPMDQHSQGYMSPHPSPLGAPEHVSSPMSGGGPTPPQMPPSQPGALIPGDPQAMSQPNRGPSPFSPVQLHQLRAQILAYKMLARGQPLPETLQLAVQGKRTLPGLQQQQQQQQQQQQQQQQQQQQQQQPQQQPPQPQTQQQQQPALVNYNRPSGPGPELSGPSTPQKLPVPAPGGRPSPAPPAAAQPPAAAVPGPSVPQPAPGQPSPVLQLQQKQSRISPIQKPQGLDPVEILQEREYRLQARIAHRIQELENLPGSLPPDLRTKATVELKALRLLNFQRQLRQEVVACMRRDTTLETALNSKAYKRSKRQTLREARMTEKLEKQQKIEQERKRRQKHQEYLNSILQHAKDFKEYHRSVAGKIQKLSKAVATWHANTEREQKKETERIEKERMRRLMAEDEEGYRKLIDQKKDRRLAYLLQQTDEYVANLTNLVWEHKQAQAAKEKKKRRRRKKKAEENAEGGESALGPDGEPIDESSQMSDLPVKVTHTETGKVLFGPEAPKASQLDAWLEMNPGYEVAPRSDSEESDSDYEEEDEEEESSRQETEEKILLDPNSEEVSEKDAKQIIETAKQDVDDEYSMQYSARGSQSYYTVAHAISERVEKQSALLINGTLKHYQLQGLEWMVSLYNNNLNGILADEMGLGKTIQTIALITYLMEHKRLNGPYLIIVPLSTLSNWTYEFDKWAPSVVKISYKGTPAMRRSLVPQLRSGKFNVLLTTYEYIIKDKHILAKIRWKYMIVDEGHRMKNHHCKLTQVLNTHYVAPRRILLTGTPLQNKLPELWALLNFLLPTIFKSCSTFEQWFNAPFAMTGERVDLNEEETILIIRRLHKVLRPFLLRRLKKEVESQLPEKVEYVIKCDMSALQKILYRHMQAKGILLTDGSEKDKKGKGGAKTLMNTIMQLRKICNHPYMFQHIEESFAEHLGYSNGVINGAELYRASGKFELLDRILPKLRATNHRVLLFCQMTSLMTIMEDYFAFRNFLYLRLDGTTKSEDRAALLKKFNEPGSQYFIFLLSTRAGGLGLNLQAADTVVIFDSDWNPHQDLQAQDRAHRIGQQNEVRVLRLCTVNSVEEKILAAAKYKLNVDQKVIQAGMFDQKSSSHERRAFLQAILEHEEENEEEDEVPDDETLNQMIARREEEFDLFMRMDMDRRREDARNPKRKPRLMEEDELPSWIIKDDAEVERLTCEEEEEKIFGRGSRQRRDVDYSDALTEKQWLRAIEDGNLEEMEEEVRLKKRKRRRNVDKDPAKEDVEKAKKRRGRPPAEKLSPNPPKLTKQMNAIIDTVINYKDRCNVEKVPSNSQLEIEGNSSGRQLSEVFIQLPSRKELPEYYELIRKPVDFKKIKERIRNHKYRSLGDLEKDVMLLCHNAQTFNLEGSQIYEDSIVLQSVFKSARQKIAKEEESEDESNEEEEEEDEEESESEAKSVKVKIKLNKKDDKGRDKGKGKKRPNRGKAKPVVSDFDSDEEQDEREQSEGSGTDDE
T1 sequence (P51532 whole entry): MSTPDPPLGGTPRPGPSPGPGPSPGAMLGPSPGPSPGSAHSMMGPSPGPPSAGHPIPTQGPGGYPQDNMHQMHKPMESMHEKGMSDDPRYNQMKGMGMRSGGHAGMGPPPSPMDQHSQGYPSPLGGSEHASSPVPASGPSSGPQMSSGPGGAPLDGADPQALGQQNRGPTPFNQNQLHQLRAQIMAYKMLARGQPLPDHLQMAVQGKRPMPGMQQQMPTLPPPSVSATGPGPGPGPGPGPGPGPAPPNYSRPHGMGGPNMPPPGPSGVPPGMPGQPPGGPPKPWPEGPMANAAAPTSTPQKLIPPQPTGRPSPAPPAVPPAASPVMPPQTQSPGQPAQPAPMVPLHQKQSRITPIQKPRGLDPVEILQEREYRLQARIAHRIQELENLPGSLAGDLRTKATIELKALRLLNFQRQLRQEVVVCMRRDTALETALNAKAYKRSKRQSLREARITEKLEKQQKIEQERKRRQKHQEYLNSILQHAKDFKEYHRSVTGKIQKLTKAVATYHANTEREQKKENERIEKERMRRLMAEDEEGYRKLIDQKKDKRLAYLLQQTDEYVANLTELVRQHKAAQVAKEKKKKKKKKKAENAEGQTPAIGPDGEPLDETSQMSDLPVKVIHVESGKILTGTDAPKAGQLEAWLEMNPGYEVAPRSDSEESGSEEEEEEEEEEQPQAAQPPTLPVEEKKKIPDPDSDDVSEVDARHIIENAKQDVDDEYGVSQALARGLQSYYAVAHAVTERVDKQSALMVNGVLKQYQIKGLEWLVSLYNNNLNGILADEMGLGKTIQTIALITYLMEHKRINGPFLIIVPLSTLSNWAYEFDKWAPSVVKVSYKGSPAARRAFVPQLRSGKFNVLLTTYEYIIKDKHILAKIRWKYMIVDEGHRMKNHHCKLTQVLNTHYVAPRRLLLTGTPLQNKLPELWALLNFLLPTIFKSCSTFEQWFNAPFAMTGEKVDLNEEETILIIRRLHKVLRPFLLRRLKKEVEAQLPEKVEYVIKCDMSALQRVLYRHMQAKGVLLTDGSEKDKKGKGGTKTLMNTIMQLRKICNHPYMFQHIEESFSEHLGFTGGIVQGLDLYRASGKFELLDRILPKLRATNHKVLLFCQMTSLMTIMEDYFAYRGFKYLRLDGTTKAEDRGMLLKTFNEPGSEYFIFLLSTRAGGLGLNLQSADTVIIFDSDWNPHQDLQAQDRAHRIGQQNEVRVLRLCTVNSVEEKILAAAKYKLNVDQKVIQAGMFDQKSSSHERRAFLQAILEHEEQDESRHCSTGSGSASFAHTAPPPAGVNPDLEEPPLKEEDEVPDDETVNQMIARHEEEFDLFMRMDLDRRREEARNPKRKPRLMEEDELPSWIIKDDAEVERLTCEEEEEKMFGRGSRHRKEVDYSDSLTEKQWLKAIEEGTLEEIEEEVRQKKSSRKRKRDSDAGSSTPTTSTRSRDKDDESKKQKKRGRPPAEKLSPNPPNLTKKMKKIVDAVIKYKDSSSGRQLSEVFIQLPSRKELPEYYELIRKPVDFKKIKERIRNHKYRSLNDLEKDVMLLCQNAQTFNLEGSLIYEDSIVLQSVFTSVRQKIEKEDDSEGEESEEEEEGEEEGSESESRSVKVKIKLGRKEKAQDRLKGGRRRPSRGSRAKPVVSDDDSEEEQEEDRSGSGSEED

`O=C1CCC(N2Cc3ccc(N4CC[C@@H](CN5CC[C@@H](CN6CCN7c8cc(-c9cc(F)cc(F)c9O)nnc8NC[C@H]7C6)C5)C4)cc3C2=O)C(=O)N1` (stereo partly drawn) [Example 52, 3-(6-((S)-3-(((R)-3-(((S)-2-(3,5-difluoro-2-hydroxyphenyl)-5,6,6a,7,9,10-hexahydro-8H-pyrazino[1′,2′:4,5]pyrazino[2,3-c]pyridazin-8-yl)methyl)pyrrolidin-1-yl)methyl)pyrrolidin-1-yl)-1-oxoisoindolin-2-yl)piperidine-2,6-dione]: the DC50 in assay [1] and in assay [2] was under 100 nM each time. For the same compound, the Dmax in assay [1] is 50 to 75%; in assay [2] it was over 75%.

As for `O=C1CCC(N2Cc3cc(N4CC[C@@H](CN5CCC(CN6CCN7c8cc(-c9cc(F)cc(F)c9O)nnc8NC[C@H]7C6)CC5)C4)ccc3C2=O)C(=O)N1` (stereo partly drawn) [Example 53, 3-(5-((S)-3-((4-(((S)-2-(3,5-difluoro-2-hydroxyphenyl)-5,6,6a,7,9,10-hexahydro-8H-pyrazino[1′,2′:4,5]pyrazino[2,3-c]pyridazin-8-yl)methyl)piperidin-1-yl)methyl)pyrrolidin-1-yl)-1-oxoisoindolin-2-yl)piperidine-2,6-dione], the DC50 in assay [1] and in assay [2] was under 100 nM throughout. Also, the Dmax in assay [1] is 50 to 75%; in assay [2], over 75%.

Regarding `O=C1CCC(N2Cc3ccc(N4CCN(C[C@H]5CC[C@H](CN6CCN7c8cc(-c9cc(F)cc(F)c9O)nnc8NC[C@H]7C6)CC5)CC4)cc3C2=O)C(=O)N1` (some centres unmarked) [Example 54], the DC50 in assay [1] and in assay [2] was under 100 nM in each case. Besides, the Dmax in assay [1] and in assay [2] was over 75% throughout.

In assay [1], `O=C1CCC(N2Cc3ccc(N4CCC(CN5CCC(F)(C(=O)N6CCN7c8cc(-c9cc(F)cc(F)c9O)nnc8NC[C@H]7C6)CC5)CC4)cc3C2=O)C(=O)N1` (stereo partly drawn) [Example 55, 3-(6-(4-((4-((S)-2-(3,5-difluoro-2-hydroxyphenyl)-6,6a,7,8,9,10-hexahydro-5H-pyrazino[1′,2′:4,5]pyrazino[2,3-c]pyridazine-8-carbonyl)-4-fluoropiperidin-1-yl)methyl)piperidin-1-yl)-1-oxoisoindolin-2-yl)piperidine-2,6-dione] showed a DC50 of under 100 nM and a Dmax of under 50%. Besides, in assay [2], the DC50 is under 100 nM and the Dmax was 50 to 75%.

Take `O=C1CCC(N2Cc3ccc(N4CCN(C[C@H]5CC[C@@H](CN6CCN7c8cc(-c9cc(F)cc(F)c9O)nnc8NC[C@H]7C6)CC5)CC4)cc3C2=O)C(=O)N1` (stereo partly drawn) [Example 56, 3-(6-(4-(((1R,4s)-4-(((S)-2-(3,5-difluoro-2-hydroxyphenyl)-5,6,6a,7,9,10-hexahydro-8H-pyrazino[1′,2′:4,5]pyrazino[2,3-c]pyridazin-8-yl)methyl)cyclohexyl)methyl)piperazin-1-yl)-1-oxoisoindolin-2-yl)piperidine-2,6-dione]: the DC50 in assay [1] and in assay [2] was under 100 nM in each case. Besides, the Dmax in assay [1] and in assay [2] was over 75% in each case.

In assay [1], `C[C@@H]1CN(CC2CCN(c3ccc4c(c3)C(=O)N(C3CCC(=O)NC3=O)C4)CC2)[C@@H](C)CN1C(=O)N1CCN2c3cc(-c4cccc(F)c4O)nnc3NCC2(C)C1` (stereo partly drawn) [Example 57, 3-(6-(4-(((2S,5R)-4-(2-(3-fluoro-2-hydroxyphenyl)-6a-methyl-6,6a,7,8,9,10-hexahydro-5H-pyrazino[1′,2′:4,5]pyrazino[2,3-c]pyridazine-8-carbonyl)-2,5-dimethyl-piperazin-1-yl)methyl)piperidin-1-yl)-1-oxoisoindolin-2-yl)piperidine-2,6-dione] came in with a DC50 of under 100 nM and a Dmax of under 50%. In assay [2], the DC50 is under 100 nM and the greatest degradation seen (Dmax) is over 75%.

As for `O=C1CCC(N2Cc3ccc(N4CCN(C[C@H]5CC[C@H](CN6CCN7c8cc(-c9cccc(F)c9O)nnc8NC[C@H]7C6)CC5)CC4)cc3C2=O)C(=O)N1` (stereo partly drawn) [Example 58, 3-(6-(4-(((1S,4r)-4-(((S)-2-(3-fluoro-2-hydroxyphenyl)-5,6,6a,7,9,10-hexahydro-8H-pyrazino[1′,2′:4,5]pyrazino[2,3-c]pyridazin-8-yl)methyl)cyclohexyl)methyl)piperazin-1-yl)-1-oxoisoindolin-2-yl)piperidine-2,6-dione], in assay [1], the DC50 is under 100 nM and the Dmax lay in the range of 50 to 75%. For the same compound, in assay [2], the DC50 was under 100 nM and the maximal degradation (Dmax) is over 75%.

As to `CC1(C)CN(CC2CCN(c3ccc4c(c3)C(=O)N([C@H]3CCC(=O)NC3=O)C4)CC2)CCN1C(=O)N1CCN2c3cc(-c4cccc(F)c4O)nnc3NC[C@]2(C(F)F)C1` [Example 65, (S)-3-(6-(4-((4-((R)-6a-(difluoromethyl)-2-(3-fluoro-2-hydroxyphenyl)-6,6a,7,8,9,10-hexahydro-5H-pyrazino[1′,2′:4,5]pyrazino[2,3-c]pyridazine-8-carbonyl)-3,3-dimethylpiperazin-1-yl)methyl)piperidin-1-yl)-1-oxoisoindolin-2-yl)piperidine-2,6-dione], the DC50 in assay [1] and in assay [2] was under 100 nM in each case. Further, the figures for the Dmax in assay [1] and in assay [2] were 50 to 75% and over 75%, respectively.

In assay [1], `C[C@H]1CN(CC2CCN(c3ccc4c(c3)C(=O)N([C@H]3CCC(=O)NC3=O)C4)CC2)C[C@H](C)N1C(=O)N1CCN2c3cc(-c4cccc(F)c4O)nnc3NC[C@]2(C(F)F)C1` [Example 66, (S)-3-(6-(4-(((3S,5S)-4-((R)-6a-(difluoromethyl)-2-(3-fluoro-2-hydroxyphenyl)-6,6a,7,8,9,10-hexahydro-5H-pyrazino[1′,2′:4,5]pyrazino[2,3-c]pyridazine-8-carbonyl)-3,5-dimethylpiperazin-1-yl)methyl)piperidin-1-yl)-1-oxoisoindolin-2-yl)piperidine-2,6-dione] yielded a DC50 of under 100 nM and a Dmax of over 75%. In addition, in assay [2], the DC50 is under 100 nM and the Dmax was over 75%.

On to `C[C@@H]1CN(CC2CCN(c3ccc4c(c3)C(=O)N([C@H]3CCC(=O)NC3=O)C4)CC2)C[C@@H](C)N1C(=O)N1CCN2c3cc(-c4cccc(F)c4O)nnc3NC[C@]2(C(F)F)C1` [Example 67, (S)-3-(6-(4-(((3R,5R)-4-((R)-6a-(difluoromethyl)-2-(3-fluoro-2-hydroxyphenyl)-6,6a,7,8,9,10-hexahydro-5H-pyrazino[1′,2′:4,5]pyrazino[2,3-c]pyridazine-8-carbonyl)-3,5-dimethylpiperazin-1-yl)methyl)piperidin-1-yl)-1-oxoisoindolin-2-yl)piperidine-2,6-dione], for which the DC50 in assay [1] and in assay [2] was under 100 nM in each case. Also, the maximal degradation (Dmax) in assay [1] and in assay [2] was 50 to 75% throughout.

Regarding `C[C@@H]1CN(CC2CCN(c3ccc4c(c3)C(=O)N([C@H]3CCC(=O)NC3=O)C4)CC2)[C@@H](C)CN1C(=O)N1CCN2c3cc(-c4cccc(F)c4O)nnc3NC[C@]2(C(F)F)C1` [Example 68, (S)-3-(6-(4-(((2S,5R)-4-((R)-6a-(difluoromethyl)-2-(3-fluoro-2-hydroxyphenyl)-6,6a,7,8,9,10-hexahydro-5H-pyrazino[1′,2′:4,5]pyrazino[2,3-c]pyridazine-8-carbonyl)-2,5-dimethylpiperazin-1-yl)methyl)piperidin-1-yl)-1-oxoisoindolin-2-yl)piperidine-2,6-dione], in assay [1], the DC50 is under 100 nM and the Dmax lay in the range of 50 to 75%. In assay [2], the DC50 is under 100 nM and the Dmax was over 75%.

In the case of `C[C@@H]1CN(CC2CCN(c3ccc4c(c3)C(=O)N(C3CCC(=O)NC3=O)C4)CC2)C[C@H](C)N1C(=O)N1CCN2c3cc(-c4cccc(F)c4O)nnc3NC[C@@]2(C(F)F)C1` (stereo partly drawn) [Example 69, 3-(6-(4-(((3R,5S)-4-((S)-6a-(difluoromethyl)-2-(3-fluoro-2-hydroxyphenyl)-6,6a,7,8,9,10-hexahydro-5H-pyrazino[1′,2′:4,5]pyrazino[2,3-c]pyridazine-8-carbonyl)-3,5-dimethylpiperazin-1-yl)methyl)piperidin-1-yl)-1-oxoisoindolin-2-yl)piperidine-2,6-dione], in assay [1], the DC50 was over 1000 nM and the Dmax is under 50%. In addition, in assay [2], the DC50 was under 100 nM and the Dmax is over 75%.

For the compound `C[C@@H]1CN(CC2CCN(c3ccc4c(c3)C(=O)N(C3CCC(=O)NC3=O)C4)CC2)C[C@H](C)N1C(=O)N1CCN2c3cc(-c4cccc(F)c4O)nnc3NC[C@]2(C(F)F)C1` (stereo partly drawn) [Example 70, 3-(6-(4-(((3R,5S)-4-((R)-6a-(difluoromethyl)-2-(3-fluoro-2-hydroxyphenyl)-6,6a,7,8,9,10-hexahydro-5H-pyrazino[1′,2′:4,5]pyrazino[2,3-c]pyridazine-8-carbonyl)-3,5-dimethylpiperazin-1-yl)methyl)piperidin-1-yl)-1-oxoisoindolin-2-yl)piperidine-2,6-dione], in assay [1], the DC50 is under 100 nM and the Dmax lay in the range of 50 to 75%. Also, in assay [2], the DC50 was under 100 nM and the Dmax is over 75%.

In assay [1], `C[C@@H]1C[C@H](CN2CCN(c3ccc4c(c3)C(=O)N([C@H]3CCC(=O)NC3=O)C4)CC2)C[C@H](C)N1C(=O)N1CCN2c3cc(-c4cccc(F)c4O)nnc3NC[C@@]2(C(F)F)C1` [Example 71, (S)-3-(6-(4-(((2R,4S,6S)-1-((S)-6a-(difluoromethyl)-2-(3-fluoro-2-hydroxyphenyl)-6,6a,7,8,9,10-hexahydro-5H-pyrazino[1′,2′:4,5]pyrazino[2,3-c]pyridazine-8-carbonyl)-2,6-dimethylpiperidin-4-yl)methyl)piperazin-1-yl)-1-oxoisoindolin-2-yl)piperidine-2,6-dione] gave a DC50 of 100 to 1000 nM and a Dmax of under 50%. Besides, in assay [2], the DC50 was under 100 nM and the Dmax is over 75%.
